The subject of assay [1] is human peripheral blood monocytes. The assay can be described thus: Differentiation of monocytes into macrophages. It counts as cell-based. The following applies: 10-fold dilutions; 4 days; adherence and morphology. Here is the method: To determine potential effects of Compound 1 and fifteen other epoxy-tigliane compounds in the array on monocyte differentiation, human peripheral blood mononuclear cells (PBMCs) were isolated by Ficoll-Paque sedimentation of heparinised blood from a human donor, and plated at 100,000 cells/well in RPMI-1640 10% FCS. Duplicate wells were treated with 10-fold dilutions of the compounds and incubated at 37° C. for 4 days. The wells were scored visually for cell attachment and morphology, then washed twice with PBS, stained with sulfurhodamine and the incorporate stain quantitated in an ELISA reader. The plates were then washed with water and stained with 1% crystal violet in methanol for photography and scoring of adherent cell morphology.

Assay [2] relates to human neonatal fibroblasts. The assay can be described thus: Scratch closure, human neonatal fibroblasts, Method 3 (IncuCyte). It is filed as cell-based. The following applies: 200 ng/mL. Here is the method:
The ability of early. passage neonatal foreskin fibroblasts (NFF) cultured in RPMI 1640-10% foetal calf serum to migrate across a scratch wound made in a confluent monolayer following treatment with purified compounds or plant extracts was determined using one or more of the following three methods.
Cells were seeded and treated in 96-well plates as in Method 2 (5 replicate wells per dilution), except that the scratches were made in one action with a tool having 96, 1 mm thick teflon coated pins (Essen Bioscience Woundmaker). The plate was then placed in a 37° C., 5% CO2 humidified atmosphere in an IncuCyte FLR instrument programmed to photograph each well under phase contrast at 3 hr intervals for 42 hours. The software determined the initial scratch boundaries and their rate of closure. Accelerated wound closure was considered to be significant if the initial rate of closure was >10% of the untreated controls.

Take “12,13-di-heptanoyl-6,7-epoxy-4,5,9,12,13,20-hexahydroxy-1-tigliaen-3-one [Compound 49]”: the “Differentiation endpoint (endpoint concentration in dilution series for induction of macrophage phenotype)” value (“Differentiation endpoint” for short) in assay [1] stood at 1 ng/mL. On the same count and under the same terms, the figure for “12,13-di-nonoyl-6,7-epoxy-4,5,9,12,13,20-hexahydroxy-1-tigliaen-3-one [Compound 41]” is 0.1 ng/mL.

Regarding “12-(3-butenoyl)-13-nonanoyl-6,7-epoxy-4,5,9,12,13,20-hexahydroxy-1-tigliaen-3-one [Compound 22]”, the “% closure compared to control” value in assay [2] worked out at 400%. The “Differentiation endpoint” value in assay [1] came to 100 ng/mL. The matching figures for “12-benzoyl-13-(2-methylbutanoyl)-6,7-epoxy-4,5,9,12,13,20-hexahydroxy-1-tigliaen-3-one [Compound 23]”: 130% and 1 ng/mL.

As for “12-benzoyl-13-butanoyl-6,7-epoxy-4,5,9,12,13,20-hexahydroxy-1-tigliaen-3-one [Compound 28]”, the “% closure compared to control” value in assay [2] is recorded as 140%.

With “12-myristoyl-13-(2-methylbutanoyl)-6,7-epoxy-4,5,9,12,13,20-hexahydroxy-1-tigliaen-3-one [Compound 51]”, in assay [1], the “Differentiation endpoint” value is recorded as 1 ng/mL. Regarding “12-myristoyl-13-acetyl-6,7-epoxy-4,5,9,12,13,20-hexahydroxy-1-tigliaen-3-one [Compound 50]”, the “Differentiation endpoint” value in assay [1] is given as 1 ng/mL. On to “12-tigloyl-13-butanoyl-6,7-epoxy-4,5,9,12,13,20-hexahydroxy-1-tigliaen-3-one [Compound 21]”, for which the “% closure compared to control” value in assay [2] is listed as 200%. The “Differentiation endpoint” value in assay [1] is on record as 10 ng/mL. As to `CCCCCC=CC=CC=CC(=O)OC1C(C)C2(O)C(C3OC3(CO)C(O)C3(O)C(=O)C(C)=CC32)C2C(C)(C)C12OC(=O)C(C)CC` (stereo not drawn) [Compound 3, 12-[(2E,4E,6E)-dodeca-2,4,6-trienoyl]-13-(2-methylbutanoyl)-6,7-epoxy-4,5,9,12,13,20-hexahydroxy-1-tigliaen-3-one], the “% closure compared to control” value in assay [2] is recorded as 270%. Besides, the “Differentiation endpoint” value in assay [1] worked out at 10 ng/mL. Turning to `CCCCCC(O)C(O)/C=C/C=C/C(=O)OC1C(C)C2(O)C(C3OC3(CO)C(O)C3(O)C(=O)C(C)=CC32)C2C(C)(C)C12OC(=O)C(C)CC` (stereo not drawn) [Compound 11, 12-[(2E,4E)-6,7-dihydroxydodeca-2,4-dienoyl]-13-(2-methylbutanoyl)-6,7-epoxy-4,5,9,12,13,20-hexahydroxy-1-tigliaen-3-one], in assay [2], the “% closure compared to control” value was 270%. Same read-out and setting: the figure for `CCCCCC=CC=CC(=O)OC1C(C)C2(O)C(C3OC3(CO)C(O)C3(O)C(=O)C(C)=CC32)C2C(C)(C)C12OC(=O)C(C)CC` (stereo not drawn) [Compound 18, 12-[(2Z,4E)-deca-2,4-dienoyl]-13-(2-methylbutanoyl)-6,7-epoxy-4,5,9,12,13,20-hexahydroxy-1-tigliaen-3-one] is 220%. As to `CCCCCC=CC=CC(=O)OC1C(C)C2(O)C(C3OC3(CO)C(O)C3(O)C(=O)C(C)=CC32)C2C(C)(C)C12OC(=O)C(C)CC` (stereo not drawn) [Compound 24, 12-[(2E,4E)-deca-2,4-dienoyl]-13-(2-methylbutanoyl)-6,7-epoxy-4,5,9,12,13,20-hexahydroxy-1-tigliaen-3-one], in assay [1], the “Differentiation endpoint” value is reported as 1 ng/mL. Same read-out and setting: the figure for `CCC(C)C(=O)OC1C(C)C2(O)C(C3OC3(CO)C(O)C3(O)C(=O)C(C)=CC32)C2C(C)(C)C12OC(C)=O` (stereo not drawn) [Compound 52, 12-(2-methylbutanoyl)-13-acetyl-6,7-epoxy-4,5,9,12,13,20-hexahydroxy-1-tigliaen-3-one] is 10 ng/mL; for `CCCCCC(=O)OC12C(O)C(C)C3(O)C(C4OC4(CO)C(O)C4(O)C(=O)C(C)=CC43)C1C2(C)C` (stereo not drawn) [Compound 53, 13-hexanoyl-6,7-epoxy-4,5,9,12,13,20-hexahydroxy-1-tigliaen-3-one] it is 100 ng/mL.

The values are drawn from patent US10822317B2, “Methods and compositions for wound healing” (QBiotics Limited, priority 2013, dated 2020).
